Measured values published in patent US8785457B2 (Cellzome Limited, priority 2009, dated 2014).
Like-named read-outs stand apart in the source and are kept apart here.

Columns and labels:
mTOR = target: T1, mTOR (Homo sapiens, UniProt P42345); experiment: mTOR kinobeads assay (competitive binding in Jurkat cell lysate, immunodetection)
T1 construct: endogenous in cells; host or cells: Jurkat, clone E6-1 (ATCC TIB-152) cell lysate
Outline: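 IC50 derived from dose-response curves of mTOR captured on immobilized phenylmorpholin-chromen beads, detected by antibody dot blot with infrared fluorescence.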

PI3Kalpha (PI3Ka) = target: T2, PI3Kalpha (PI3Ka) (Homo sapiens, UniProt P42336); experiment: kinobeads assay, PI3Kalpha; format: binding
T2 construct: endogenous in cells; host or cells: cell lysate
Outline: (§1)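 Test compounds at various concentrations were added to cell lysate together with beads carrying an immobilized phenylmorpholin-chromen ligand, competing for kinase binding. Captured proteins were separated, eluted and quantified by multiplexed immunodetection; IC50 values came from dose-response curves for each kinase.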

PI3 Kbeta (PI3 Kb) = target: T3, PI3 Kbeta (PI3 Kb) (Homo sapiens, UniProt P42338); experiment: kinobeads assay, PI3Kbeta; format: binding
T3 construct: endogenous in cells; host or cells: cell lysate
Outline: as §1

PI3 Kgamma (PI3 Kg) = target: T4, PI3 Kgamma (PI3 Kg) (Homo sapiens, UniProt P48736); experiment: kinobeads assay, PI3Kgamma; format: binding
T4 construct: endogenous in cells; host or cells: cell lysate
Outline: as §1

[1] = Further Kinobeads Data, read-out: mTor
[2] = Further Kinobeads Data, read-out: PI3Kb
[3] = Further Kinobeads Data, read-out: PI3Kg
[4] = kinobeads assay, Table 4, read-out: Inhibition values (IC50) mTor
[5] = kinobeads assay, Table 6, read-out: Inhibition values (IC50) mTOR
[6] = kinobeads assay, Table 6, read-out: Inhibition values (IC50) PI3Kb
[7] = kinobeads assay, Table 6, read-out: Inhibition values (IC50) PI3Kg
[8] = Further Kinobeads Data, read-out: PI3Ka
[9] = kinobeads assay, Table 6, read-out: Inhibition values (IC50) PI3Ka

T3 sequence (P42338 whole entry): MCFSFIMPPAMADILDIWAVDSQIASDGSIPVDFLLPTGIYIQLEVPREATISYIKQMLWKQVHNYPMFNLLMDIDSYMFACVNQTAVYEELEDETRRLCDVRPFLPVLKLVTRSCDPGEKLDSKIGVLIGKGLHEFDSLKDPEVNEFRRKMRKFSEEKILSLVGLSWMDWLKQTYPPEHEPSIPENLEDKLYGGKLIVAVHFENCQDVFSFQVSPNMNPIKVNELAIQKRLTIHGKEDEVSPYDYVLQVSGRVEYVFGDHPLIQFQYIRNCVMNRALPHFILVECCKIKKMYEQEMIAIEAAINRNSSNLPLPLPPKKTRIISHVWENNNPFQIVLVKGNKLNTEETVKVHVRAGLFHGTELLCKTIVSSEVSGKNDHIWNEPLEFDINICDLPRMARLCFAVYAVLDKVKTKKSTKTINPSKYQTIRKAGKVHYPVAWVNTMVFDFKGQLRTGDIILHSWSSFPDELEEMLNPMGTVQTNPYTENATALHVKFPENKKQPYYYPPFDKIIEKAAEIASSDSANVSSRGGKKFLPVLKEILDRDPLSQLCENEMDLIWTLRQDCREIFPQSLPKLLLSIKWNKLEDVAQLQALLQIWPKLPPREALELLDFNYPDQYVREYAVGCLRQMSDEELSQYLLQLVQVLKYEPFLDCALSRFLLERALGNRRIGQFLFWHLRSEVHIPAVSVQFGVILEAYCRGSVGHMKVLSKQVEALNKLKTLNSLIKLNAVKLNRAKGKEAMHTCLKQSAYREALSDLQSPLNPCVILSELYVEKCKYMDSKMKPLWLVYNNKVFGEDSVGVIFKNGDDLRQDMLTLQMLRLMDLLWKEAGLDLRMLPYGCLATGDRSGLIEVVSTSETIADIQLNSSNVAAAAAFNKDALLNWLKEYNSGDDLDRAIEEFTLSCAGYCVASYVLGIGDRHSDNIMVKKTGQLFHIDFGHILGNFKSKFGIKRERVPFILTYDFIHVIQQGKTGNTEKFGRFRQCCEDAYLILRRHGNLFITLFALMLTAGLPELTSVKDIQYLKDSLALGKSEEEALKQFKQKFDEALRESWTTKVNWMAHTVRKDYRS
T3 sequence (P27986 whole entry partner): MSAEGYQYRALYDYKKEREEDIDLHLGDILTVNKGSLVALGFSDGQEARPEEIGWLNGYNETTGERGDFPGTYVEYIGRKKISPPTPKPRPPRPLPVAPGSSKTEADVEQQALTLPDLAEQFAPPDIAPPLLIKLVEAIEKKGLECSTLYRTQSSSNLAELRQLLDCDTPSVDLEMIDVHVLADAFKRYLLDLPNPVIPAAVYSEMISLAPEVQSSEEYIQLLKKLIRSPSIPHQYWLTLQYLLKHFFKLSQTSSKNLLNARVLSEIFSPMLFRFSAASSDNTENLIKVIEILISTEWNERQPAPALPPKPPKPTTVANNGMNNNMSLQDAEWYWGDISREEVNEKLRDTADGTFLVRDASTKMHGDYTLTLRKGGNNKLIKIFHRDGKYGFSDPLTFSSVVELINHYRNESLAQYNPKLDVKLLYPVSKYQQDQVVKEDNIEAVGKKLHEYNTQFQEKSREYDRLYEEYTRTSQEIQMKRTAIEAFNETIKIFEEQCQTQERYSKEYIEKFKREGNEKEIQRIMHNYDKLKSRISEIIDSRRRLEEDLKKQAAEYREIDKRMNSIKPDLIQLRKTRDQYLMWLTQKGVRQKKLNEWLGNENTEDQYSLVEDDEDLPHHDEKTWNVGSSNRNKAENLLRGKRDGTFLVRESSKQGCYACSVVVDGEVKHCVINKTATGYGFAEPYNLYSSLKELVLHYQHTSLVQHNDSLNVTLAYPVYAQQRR
T2 sequence (P42336 whole entry): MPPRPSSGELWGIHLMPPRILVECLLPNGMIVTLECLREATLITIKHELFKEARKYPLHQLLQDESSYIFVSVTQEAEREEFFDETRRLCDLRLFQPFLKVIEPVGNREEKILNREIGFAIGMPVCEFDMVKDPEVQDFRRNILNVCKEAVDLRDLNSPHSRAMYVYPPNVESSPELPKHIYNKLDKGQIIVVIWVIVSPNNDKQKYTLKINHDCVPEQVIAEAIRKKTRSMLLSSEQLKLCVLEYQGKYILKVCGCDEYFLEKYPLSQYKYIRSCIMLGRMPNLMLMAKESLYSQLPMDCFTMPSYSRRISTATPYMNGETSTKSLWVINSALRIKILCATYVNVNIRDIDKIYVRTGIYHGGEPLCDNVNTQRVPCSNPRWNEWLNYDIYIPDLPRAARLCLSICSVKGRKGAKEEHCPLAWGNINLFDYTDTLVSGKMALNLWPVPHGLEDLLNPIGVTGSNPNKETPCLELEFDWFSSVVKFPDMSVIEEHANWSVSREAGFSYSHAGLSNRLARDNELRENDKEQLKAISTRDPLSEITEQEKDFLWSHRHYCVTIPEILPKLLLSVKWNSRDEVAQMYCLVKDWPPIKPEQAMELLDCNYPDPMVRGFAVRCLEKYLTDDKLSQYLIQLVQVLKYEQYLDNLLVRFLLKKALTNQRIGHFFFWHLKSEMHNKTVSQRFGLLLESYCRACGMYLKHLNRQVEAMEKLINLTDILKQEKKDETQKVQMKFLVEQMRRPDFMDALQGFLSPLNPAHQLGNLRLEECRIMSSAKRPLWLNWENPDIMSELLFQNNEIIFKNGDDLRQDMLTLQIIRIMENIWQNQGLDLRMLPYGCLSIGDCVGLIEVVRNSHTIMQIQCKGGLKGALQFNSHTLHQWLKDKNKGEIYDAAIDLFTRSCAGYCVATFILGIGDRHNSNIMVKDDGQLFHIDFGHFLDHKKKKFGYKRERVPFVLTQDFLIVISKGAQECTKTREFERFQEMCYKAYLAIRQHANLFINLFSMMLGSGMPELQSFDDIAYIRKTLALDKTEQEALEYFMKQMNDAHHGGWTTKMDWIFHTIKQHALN
T2 sequence (P27986 whole entry partner): as the sequence (P27986 whole entry partner) above
T4 sequence (P48736 whole entry): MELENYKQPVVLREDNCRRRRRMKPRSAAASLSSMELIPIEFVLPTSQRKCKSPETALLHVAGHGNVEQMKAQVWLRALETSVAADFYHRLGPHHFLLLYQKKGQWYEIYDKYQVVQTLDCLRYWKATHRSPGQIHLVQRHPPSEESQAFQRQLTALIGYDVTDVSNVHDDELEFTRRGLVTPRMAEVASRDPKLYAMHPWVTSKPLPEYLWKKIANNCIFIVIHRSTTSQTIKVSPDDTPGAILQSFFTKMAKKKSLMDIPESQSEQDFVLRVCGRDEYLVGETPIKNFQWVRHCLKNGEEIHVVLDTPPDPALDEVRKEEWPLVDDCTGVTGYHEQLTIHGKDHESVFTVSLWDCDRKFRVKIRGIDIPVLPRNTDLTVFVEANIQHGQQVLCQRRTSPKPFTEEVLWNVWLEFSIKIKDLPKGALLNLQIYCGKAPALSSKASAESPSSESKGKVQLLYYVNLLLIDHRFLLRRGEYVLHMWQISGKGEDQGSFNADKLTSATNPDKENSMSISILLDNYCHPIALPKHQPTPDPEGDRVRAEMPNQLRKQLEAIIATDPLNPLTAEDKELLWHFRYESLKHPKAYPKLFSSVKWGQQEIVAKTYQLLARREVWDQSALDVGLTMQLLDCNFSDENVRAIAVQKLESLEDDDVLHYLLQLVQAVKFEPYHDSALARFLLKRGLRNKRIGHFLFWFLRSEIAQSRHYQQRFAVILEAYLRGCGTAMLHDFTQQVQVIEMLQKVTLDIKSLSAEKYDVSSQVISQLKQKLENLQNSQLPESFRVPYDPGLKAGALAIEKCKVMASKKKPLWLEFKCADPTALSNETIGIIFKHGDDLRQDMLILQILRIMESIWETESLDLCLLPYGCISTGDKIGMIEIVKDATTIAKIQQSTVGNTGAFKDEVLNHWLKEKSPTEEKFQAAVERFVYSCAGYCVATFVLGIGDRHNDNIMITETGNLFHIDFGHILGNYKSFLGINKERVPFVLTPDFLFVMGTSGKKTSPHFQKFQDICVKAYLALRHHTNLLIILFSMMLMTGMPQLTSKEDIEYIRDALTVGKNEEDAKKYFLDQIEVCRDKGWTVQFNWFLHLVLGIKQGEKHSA

## C[C@H]1COCCN1c1nc(-c2ccc(NC(=O)NC3CC3)cc2F)nc2c1CCN(C(=O)N(C)C)C2 [Example 165, (S)-2-(4-(3-cyclopropylureido)-2-fluorophenyl)-N,N-dimethyl-4-(3-methylmorpholino)-5,6-dihydropyrido[3,4-d]pyrimidine-7(8H)-carboxamide]
mTOR; [1]
  IC50: < 0.1 µM
PI3Kalpha (PI3Ka); Further Kinobeads Data
  PI3Ka: D (D >10 μM)
PI3 Kbeta (PI3 Kb); [2]
  IC50: > 10 µM
PI3 Kgamma (PI3 Kg); [3]
  IC50: > 10 µM

## CCNC(=O)Nc1cc(F)c(-c2nc3c(c(N4CCOC[C@@H]4C)n2)CN(C(=O)OCC)C3)cc1F [Example 141, (S)-ethyl 2-(4-(3-ethylureido)-2,5-difluorophenyl)-4-(3-methylmorpholino)-5H-pyrrolo[3,4-d]pyrimidine-6(7H)-carboxylate]
mTOR; [1]
  IC50: 1 to 10 µM
PI3Kalpha (PI3Ka); Further Kinobeads Data
  PI3Ka: D (D >10 μM)
PI3 Kbeta (PI3 Kb); [2]
  IC50: > 10 µM
PI3 Kgamma (PI3 Kg); [3]
  IC50: > 10 µM

## CCOC(=O)N1Cc2nc(-c3ccc(NC(=O)NCCF)cc3F)nc(N3CCOCC3)c2C1 [Example 170, ethyl 2-(2-fluoro-4-(3-(2-fluoroethyl)ureido)phenyl)-4-morpholino-5H-pyrrolo[3,4-d]pyrimidine-6(7H)-carboxylate]
mTOR; [1]
  IC50: < 0.1 µM
PI3Kalpha (PI3Ka); Further Kinobeads Data
  PI3Ka: D (D >10 μM)
PI3 Kbeta (PI3 Kb); [2]
  IC50: > 10 µM
PI3 Kgamma (PI3 Kg); [3]
  IC50: > 10 µM

## C[C@H]1COCCN1c1nc(-c2ccc(NC(=O)NC3CC3)cc2)nc2c1CN(C(=O)C(C)(C)C)C2 [Example 45, (S)-1-cyclopropyl-3-(4-(4-(3-methylmorpholino)-6-pivaloyl-6,7-dihydro-5H-pyrrolo[3,4-d]pyrimidin-2-yl)phenyl)urea]
mTOR; [4]
  IC50: 0.1 to 1 µM
mTOR; [5]
  IC50: 0.1 to 1 µM
PI3Kalpha (PI3Ka); kinobeads assay, Table 6
  Inhibition values (IC50) PI3Ka: D (D >10 μM)
PI3 Kbeta (PI3 Kb); [6]
  IC50: > 10 µM
PI3 Kgamma (PI3 Kg); [7]
  IC50: > 10 µM

## CCOC(=O)N1Cc2nc(-c3ccc(NC(=O)NCCF)cc3F)nc(N3CCOC[C@@H]3C)c2C1 [Example 168, (S)-ethyl 2-(2-fluoro-4-(3-(2-fluoroethyl)ureido)phenyl)-4-(3-methylmorpholino)-5H-pyrrolo[3,4-d]pyrimidine-6(7H)-carboxylate]
mTOR; [1]
  IC50: < 0.1 µM
PI3Kalpha (PI3Ka); [8]
  IC50: 1 to 10 µM
PI3 Kbeta (PI3 Kb); [2]
  IC50: > 10 µM
PI3 Kgamma (PI3 Kg); [3]
  IC50: > 10 µM

## CC(C)N1Cc2nc(-c3ccc(NC(=O)NCCF)cc3F)nc(N3CCOCC3)c2C1 [Example 185, 1-(3-fluoro-4-(6-isopropyl-4-morpholino-6,7-dihyro-5H-pyrrolo[3,4-d]pyrimidin-2-yl)phenyl)-3-(2-fluoroethyl)urea]
mTOR; [1]
  IC50: < 0.1 µM
PI3Kalpha (PI3Ka); [8]
  IC50: 1 to 10 µM
PI3 Kbeta (PI3 Kb); [2]
  IC50: > 10 µM
PI3 Kgamma (PI3 Kg); [3]
  IC50: > 10 µM

## C[C@H]1COCCN1c1nc(-c2ccc(NC(=O)NC3CC3)cc2)nc2c1CCN(CC(C)(C)C)C2 [Example 41, (S)-1-cyclopropyl-3-(4-(4-(3-methylmorpholino)-7-neopentyl-5,6,7,8-tetrahydropyrido[3,4-d]pyrimidin-2-yl)phenyl)urea]
mTOR; [4]
  IC50: 0.1 to 1 µM
mTOR; [5]
  IC50: 0.1 to 1 µM
PI3Kalpha (PI3Ka); kinobeads assay, Table 6
  Inhibition values (IC50) PI3Ka: D (D >10 μM)
PI3 Kbeta (PI3 Kb); [6]
  IC50: > 10 µM
PI3 Kgamma (PI3 Kg); [7]
  IC50: > 10 µM

## CCNC(=O)Nc1ccc(-c2nc3c(c(N4CCOC[C@@H]4C)n2)CN(C(=O)C2CC2)C3)cc1 [Example 23, (S)-1-(4-(6-(cyclopropanecarbonyl)-4-(3-methylmorpholino)-6,7-dihydro-5H-pyrrolo[3,4-d]pyrimidin-2-yl)phenyl)-3-ethylurea]
mTOR; [4]
  IC50: < 0.1 µM
mTOR; [5]
  IC50: < 0.1 µM
PI3Kalpha (PI3Ka); [9]
  IC50: 1 to 10 µM
PI3 Kbeta (PI3 Kb); [6]
  IC50: > 10 µM
PI3 Kgamma (PI3 Kg); [7]
  IC50: > 10 µM

## C[C@@H]1COCCN1c1nc(-c2ccc(NC(=O)NC3CC3)cc2F)nc2c1CN(S(C)(=O)=O)C2 [Example 191, (R)-1-cyclopropyl-3-(3-fluoro-4-(4-(3-methylmorpholino)-6-(methylsulfonyl)-6,7-dihydro-5H-pyrrolo[3,4-d]pyrimidin-2-yl)phenyl)urea]
mTOR; [1]
  IC50: 0.1 to 1 µM
PI3Kalpha (PI3Ka); Further Kinobeads Data
  PI3Ka: D (D >10 μM)
PI3 Kbeta (PI3 Kb); [2]
  IC50: > 10 µM
PI3 Kgamma (PI3 Kg); [3]
  IC50: > 10 µM

## COC(=O)N1Cc2nc(-c3ccc(NC(=O)NCCO)cc3F)nc(N3CCOC[C@@H]3C)c2C1 [Example 181, (S)-methyl 2-(2-fluoro-4-(3-(2-hydroxyethyl)ureido)phenyl)-4-(3-methylmorpholino)-5H-pyrrolo[3,4-d]pyrimidine-6(7H)-carboxylate]
mTOR; [1]
  IC50: < 0.1 µM
PI3Kalpha (PI3Ka); Further Kinobeads Data
  PI3Ka: D (D >10 μM)
PI3 Kbeta (PI3 Kb); [2]
  IC50: > 10 µM
PI3 Kgamma (PI3 Kg); [3]
  IC50: > 10 µM

## CCNC(=O)Nc1ccc(-c2nc3c(c(N4CCOC[C@@H]4C)n2)CN(C(=O)OC(C)(C)C)C3)c(F)c1 [Example 153, (S)-tert-butyl 2-(4-(3-ethylureido)-2-fluorophenyl)-4-(3-methylmorpholino)-5H-pyrrolo[3,4-d]pyrimidine-6-(7H)-carboxylate]
mTOR; [1]
  IC50: < 0.1 µM
PI3Kalpha (PI3Ka); Further Kinobeads Data
  PI3Ka: D (D >10 μM)
PI3 Kbeta (PI3 Kb); [2]
  IC50: > 10 µM
PI3 Kgamma (PI3 Kg); [3]
  IC50: > 10 µM

## C[C@H]1COCCN1c1nc(-c2ccc(NC(=O)NC3CC3)cc2F)nc2c1CN(C(=O)N(C)C)C2 [Example 178, (S)-2-(4-(3-cyclopropylureido)-2-fluorophenyl)-N,N-dimethyl-4-(3-methylmorpholino)-5H-pyrrolo[3,4-d]pyrimidine-6(7H)-carboxamide]
mTOR; [1]
  IC50: 0.1 to 1 µM
PI3Kalpha (PI3Ka); Further Kinobeads Data
  PI3Ka: D (D >10 μM)
PI3 Kbeta (PI3 Kb); [2]
  IC50: > 10 µM
PI3 Kgamma (PI3 Kg); [3]
  IC50: > 10 µM

## CCNC(=O)Nc1ccc(-c2nc3c(c(N4CCOC[C@@H]4C)n2)CN(CC2CC2)C3)cc1 [Example 28, (S)-1-(4-(6-(cyclopropylmethyl)-4-(3-methylmorpholino)-6,7-dihydro-5H-pyrrolo[3,4-d]pyrimidin-2-yl)phenyl)-3-ethylurea]
mTOR; [4]
  IC50: < 0.1 µM
mTOR; [5]
  IC50: < 0.1 µM
PI3Kalpha (PI3Ka); kinobeads assay, Table 6
  Inhibition values (IC50) PI3Ka: D (D >10 μM)
PI3 Kbeta (PI3 Kb); [6]
  IC50: > 10 µM
PI3 Kgamma (PI3 Kg); [7]
  IC50: > 10 µM

## CCOC(=O)N1Cc2nc(-c3ccc(NC(=O)NCCO)cc3F)nc(N3CCOCC3)c2C1 [Example 171, ethyl 2-(2-fluoro-4-(3-(2-hydroxyethyl)ureido)phenyl)-4-morpholino-5H-pyrrolo[3,4-d]pyrimidine-6(7H)-carboxylate]
mTOR; [1]
  IC50: < 0.1 µM
PI3Kalpha (PI3Ka); Further Kinobeads Data
  PI3Ka: D (D >10 μM)
PI3 Kbeta (PI3 Kb); [2]
  IC50: > 10 µM
PI3 Kgamma (PI3 Kg); [3]
  IC50: > 10 µM

## CC(C)N1CCc2c(nc(-c3ccc(NC(=O)NC4CC4)cc3)nc2N2CCOC[C@@H]2C)C1 [Example 43, (S)-1-cyclopropyl-3-(4-(7-isopropyl-4-(3-methylmorpholino)-5,6,7,8-tetrahydropyrido[3,4-d]pyrimidin-2-yl)phenyl)urea]
mTOR; [4]
  IC50: < 0.1 µM
mTOR; [5]
  IC50: < 0.1 µM
PI3Kalpha (PI3Ka); [9]
  IC50: 1 to 10 µM
PI3 Kbeta (PI3 Kb); [6]
  IC50: 1 to 10 µM
PI3 Kgamma (PI3 Kg); [7]
  IC50: 1 to 10 µM

## CCNC(=O)Nc1ccc(-c2nc3c(c(N4CCOC[C@@H]4C)n2)CCN(CC)C3)cc1 [Example 27, (S)-1-ethyl-3-(4-(7-ethyl-4-(3-methylmorpholino)-5,6,7,8-tetrahydropyrido[3,4-d]pyrimidin-2-yl)phenyl)urea]
mTOR; [4]
  IC50: < 0.1 µM
mTOR; [5]
  IC50: < 0.1 µM
PI3Kalpha (PI3Ka); [9]
  IC50: 1 to 10 µM
PI3 Kbeta (PI3 Kb); [6]
  IC50: 1 to 10 µM
PI3 Kgamma (PI3 Kg); [7]
  IC50: 1 to 10 µM

## CC(C)N1Cc2nc(-c3ccc(NC(=O)NC4CC4)cc3F)nc(N3CCOC[C@@H]3C)c2C1 [Example 172, (S)-1-cyclopropyl-3-(3-fluoro-4-(6-isopropyl-4-(3-methylmorpholino)-6,7-dihydro-5H-pyrrolo[3,4-d]pyrimidin-2-yl)phenyl)urea]
mTOR; [1]
  IC50: < 0.1 µM
PI3Kalpha (PI3Ka); [8]
  IC50: 1 to 10 µM
PI3 Kbeta (PI3 Kb); [2]
  IC50: > 10 µM
PI3 Kgamma (PI3 Kg); [3]
  IC50: 1 to 10 µM

## CCOC(=O)N1Cc2nc(-c3ccc(NC(=O)NCCO)cc3F)nc(N3CCOC[C@@H]3C)c2C1 [Example 167, (S)-Ethyl 2-(2-fluoro-4-(3-(2-hydroxyethyl)ureido)phenyl)-4-(3-methylmorpholino)-5H-pyrrolo[3,4-d]pyrimidine-6(7H)-carboxylate]
mTOR; [1]
  IC50: < 0.1 µM
PI3Kalpha (PI3Ka); Further Kinobeads Data
  PI3Ka: D (D >10 μM)
PI3 Kbeta (PI3 Kb); [2]
  IC50: 1 to 10 µM
PI3 Kgamma (PI3 Kg); [3]
  IC50: > 10 µM
